Experimental data reported in paper PMC8219695 (Nature Communications, 2021).
Values joined by “and” are separate entries in the source; they are usually repeats but may differ in a detail not shown here. Equal values may be shown once.

How the values were obtained:
mMOR [1] = biological target: T1, mMOR (Mus musculus, UniProt P42866); assay: BRET-based Nb33 recruitment assay at mMOR; assay type: cell-based; conditions: for Nb33 BRET assay at mMOR, response: single replicates, source data Fig 7a, listed as 7-OH Mitragynine
T1 construct: signal peptide (heterologous, not specified) (N); expressed in transfected cells; pcDNA3.1(+) construct made in house

mMOR [2] = biological target: T1, mMOR; assay: [125I]BNtxA radioligand competition binding, mouse MOR
hDOR = hDOR (Homo sapiens, UniProt P41143); assay: CAMYEL BRET cAMP agonist assay at hDOR; assay type: cell-based; conditions: for Agonist activity of 7OH analogs at hDOR: single replicate values, Supplementary Figure 7A, listed as 7-OH-Mitragynine
mKOR = biological target: T2, mKOR (Mus musculus, UniProt P33534); assay: [125I]BNtxA radioligand competition binding, mouse KOR
T2 construct: expressed in transfected cells; membranes

rKOR = biological target: T3, rKOR (Rattus norvegicus, UniProt P34975); assay: CAMYEL BRET cAMP agonist assay at rKOR; assay type: cell-based; conditions: individual replicates, Supplementary Figure 8B source data
T3 construct: expressed in transfected cells

mDOR = biological target: T4, mDOR (Mus musculus, UniProt P32300); assay: CAMYEL BRET cAMP agonist assay at mDOR; assay type: cell-based; conditions: for Agonist activity of 7OH analogs at mDOR: single replicate values, Supplementary Figure 7B, listed as 7-OH-Mitragynine
T4 construct: expressed in transfected cells

For CC[C@@H]1CN2CC[C@@]3(O)C(=Nc4cccc(OC)c43)[C@@H]2C[C@@H]1/C(=C\OC)C(=O)OC [7OH, 7-Hydroxymitragynine, reference compound], the “Nb33 BRET assay at mMOR, response” value (mMOR [1]; Log[drug] (M) -9) was -7.335 and -6.503 and -1.285 and -14.3312 and -4.26 and -7.41 and 7.337 and -0.23 and -1.333, the “Nb33 BRET assay at mMOR, response” value (mMOR [1]; Log[drug] (M) -10) was -7.162 and 6.7364 and 17.2382 and -2.279 and -1.22 and 15.6435 and -10.3312 and 4.394 and -8.638 and the “Nb33 BRET assay at mMOR, response” value (mMOR [1]; Log[drug] (M) -11) was 8.105 and -10.4588 and 2.354 and -4.559 and 5.739 and -1.18 and -4.753 and 4.633 and 0.1195. The “Emax mMOR” value (mMOR [1]; Nb33 BRET, relative to DAMGO) was ~ 20%, the Emax (mMOR [1]; read-out: Emax mMOR, Nb33 BRET, relative to DAMGO) was ~14% and the Ki (mMOR [2]) was 21.5 ± 0.8 nM. For the same molecule, the EC50 (hDOR) was 99.9 nM, the “Agonist activity of 7OH analogs at hDOR” value (hDOR; Log[drug] (M) -5) was 59.4902 and 54.7394 and 48.113 and 45.4731 and 42.3531 and 41.8085 and 33.7355 and 48.8189 and 36.1755 and the “Agonist activity of 7OH analogs at hDOR” value (hDOR; Log[drug] (M) -6) was 47.0072 and 54.0661 and 57.5431 and 39.2612 and 45.3193 and 38.3255 and 32.249 and 29.9213 and 37.5943. The “Agonist activity of 7OH analogs at hDOR” value (hDOR; Log[drug] (M) -7) was 27.5943 and 29.9093 and 13.7827 and 13.3703 and 19.5028 and 21.8057 and 32.1543 and 37.3674 and 42.4632, the “Agonist activity of 7OH analogs at hDOR” value (hDOR; Log[drug] (M) -8) was 27.0326 and 26.8622 and 6.318 and -2.952 and 5.202 and 3.255 and 18.5072 and 16.8026 and 16.758 and the “Agonist activity of 7OH analogs at hDOR” value (hDOR; Log[drug] (M) -9) was 15.8661 and 3.122 and 22.479 and 1.833 and -4.308 and 2.475 and 15.4988 and 8.368 and 7.075. For the same molecule, the “Agonist activity of 7OH analogs at hDOR” value (hDOR; Log[drug] (M) -10) was 31.7942 and 19.5741 and 16.1123 and 10.5331 and 9.484 and 5.51 and 21.6698, the “Agonist activity of 7OH analogs at hDOR” value (hDOR; Log[drug] (M) -11) was 10.918 and -1.6818 and 2.572 and 2.605 and 5.418 and 12.5121 and 11.3973 and 0.7522 and -0.994 and the “Agonist activity of 7OH analogs at hDOR” value (hDOR; Log[drug] (M) -13) was 3.025 and -6.776 and 3.7513 and 10.1702 and 6.174 and 15.4423 and -4.715 and 5.3718 and -0.6565. The Emax (hDOR; read-out: Emax) was 45%, the Ki (mKOR) was 119 ± 2.1 nM and the “Agonist activity of 7OH analogs at rKOR” value (rKOR; Log [drug](M) -5) was 51.4853 and 69.9742 and 40.1102 and 17.9877 and 23.0672 and 30.6086 and 23.1026 and 36.1112 and 26.5447. The “Agonist activity of 7OH analogs at rKOR” value (rKOR; Log [drug](M) -6) was 50.3386 and 47.4584 and 37.1736 and 16.4913 and 27.1082 and 15.3746 and 22.6508 and 23.988 and 23.2951, the “Agonist activity of 7OH analogs at rKOR” value (rKOR; Log [drug](M) -7) was 32.3706 and 5.504 and 6.859 and 19.3779 and 10.5115 and 15.4551 and 8.6 and 9.151 and 16.9313 and the “Agonist activity of 7OH analogs at rKOR” value (rKOR; Log [drug](M) -8) was 4.174 and 5.52 and 21.8967 and -3.058 and 2.36 and 0.6978 and 14.0563 and 6.31 and 24.1641. For the same molecule, the “Agonist activity of 7OH analogs at rKOR” value (rKOR; Log [drug](M) -9) was 4.922 and -12.3356 and 11.254 and 8.301 and 17.6392 and 14.4513 and 3.607 and 6.21 and -1.551, the “Agonist activity of 7OH analogs at rKOR” value (rKOR; Log [drug](M) -10) was -1.1625 and -7.143 and 8.305 and 14.5638 and 5.983 and 1.382 and -0.5163 and -2.6368 and 4.024 and the “Agonist activity of 7OH analogs at rKOR” value (rKOR; Log [drug](M) -11) was 3.848 and 0.4662 and 0.6482 and 7.796 and 8.5204 and -1.878 and 0.3369 and -2.372 and 2.035. The “Agonist activity of 7OH analogs at rKOR” value (rKOR; Log [drug](M) -13) was 5.7561 and 2.46 and -0.5992 and 11.3924 and -1.857 and 11.6902 and 1.603 and -2.596 and 3.807, the EC50 (mDOR) was 71.4 nM and the “Agonist activity of 7OH analogs at mDOR” value (mDOR; Log[drug] (M) -5) was 79.5205 and 79.1947 and 68.9488 and 85.2247 and 78.2035 and 78.3957 and 62.0758 and 81.7668 and 72.4775. The “Agonist activity of 7OH analogs at mDOR” value (mDOR; Log[drug] (M) -6) was 49.9165 and 58.342 and 65.4236 and 68.6722 and 65.6062 and 68.2461 and 72.0352 and 62.2673 and 61.4936, the “Agonist activity of 7OH analogs at mDOR” value (mDOR; Log[drug] (M) -7) was 29.0999 and 46.5592 and 41.3409 and 38.1857 and 36.2209 and 62.8298 and 64.7985 and 75.1004 and the “Agonist activity of 7OH analogs at mDOR” value (mDOR; Log[drug] (M) -8) was 17.0946 and 20.9939 and 16.1181 and 8.745 and 16.0659 and 5.863 and 49.6952 and 40.7941 and 63.5779. For the same molecule, the “Agonist activity of 7OH analogs at mDOR” value (mDOR; Log[drug] (M) -9) was 27.3274 and 1.192 and 34.2965 and 12.9525 and -4.552 and -8.401 and 25.2583 and 24.354 and 24.6431, the “Agonist activity of 7OH analogs at mDOR” value (mDOR; Log[drug] (M) -10) was 39.904 and 39.7156 and 42.1881 and 15.8228 and 9.006 and 14.7091 and 41.1226 and 23.2827 and 29.2586 and the “Agonist activity of 7OH analogs at mDOR” value (mDOR; Log[drug] (M) -11) was 3.455 and 6.714 and 6.951 and -3.421 and 2.4315 and 1.875 and 9.138 and 13.5385. The “Agonist activity of 7OH analogs at mDOR” value (mDOR; Log[drug] (M) -13) was 3.619 and 5.368 and -8.987 and -7.007 and 2.297 and 7.3103 and -1.541 and -0.9135 and 2.455 and the Emax (mDOR; read-out: Emax) was 72%.
